The target of experiment [1] is human KEAP1 (N-term, residues 321-609) (Homo sapiens, UniProt Q14145). Description: biochemical.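 Note: fluorescence polarization competition assay of Kelch domain binding to NRF2, 12-point 1:3 dilution series from 10 µM, read after 1 h at room temperature, floor 10 nM.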
The test system of experiment [2] is NQO1 mRNA in BEAS-2B cells. Description: Beas2B NQO1 mRNA cell based assay. Further details: species or system human. Conditions: Homo sapiens, BEAS-2B, 24 h, 24 h compound treatment, increase in NQO1 mRNA vs vehicle (0.1% DMSO), read-out: EC50. The method in brief: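 Relative NQO1 transcript level derived by ΔΔCT with human β-actin as internal control, using direct-lysate one-step RT-qPCR. Cells were BEAS-2B, plated overnight then treated with compound for 24 h.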

Sequence of human KEAP1 (N-term, residues 321-609) (Q14145 321-609): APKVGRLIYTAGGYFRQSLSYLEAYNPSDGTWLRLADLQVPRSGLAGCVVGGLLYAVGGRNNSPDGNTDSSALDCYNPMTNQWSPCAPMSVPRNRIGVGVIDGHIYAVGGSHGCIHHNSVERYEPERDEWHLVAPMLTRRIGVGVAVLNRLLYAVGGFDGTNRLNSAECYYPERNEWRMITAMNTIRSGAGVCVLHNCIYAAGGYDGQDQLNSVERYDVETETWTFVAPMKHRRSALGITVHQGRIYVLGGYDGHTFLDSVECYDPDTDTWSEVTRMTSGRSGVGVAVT

For `Cn1nnc2cc(COc3ccc(Br)c4c3[C@@H](CN3Cc5ccccc5C3=O)N(C(=O)[C@@H]3CCCC[C@@H]3C(=O)O)CC4)ccc21` [Example 38, (1S,2R)-2-((S)-5-bromo-8-((1-methyl-1H-benzo[d][1,2,3]triazol-5-yl)methoxy)-1-((1-oxoisoindolin-2-yl)methyl)-1,2,3,4-tetrahydroisoquinoline-2-carbonyl)cyclohexane-1-carboxylic acid], 9.3 nM corresponded to half-maximal inhibition in experiment [1] (IC50). For the same compound, the EC50 in experiment [2] worked out at 17 nM.

In experiment [1], `Cc1cnnc(N2CC[C@H](Oc3ccc(Br)c4c3[C@@H](CN3Cc5ccccc5C3=O)N(C(=O)[C@@H]3CCCC[C@@H]3C(=O)O)CC4)C2)c1` [Example 22, (1S,2R)-2-((S)-5-bromo-8-(((S)-1-(5-methylpyridazin-3-yl)pyrrolidin-3-yl)oxy)-1-((1-oxoisoindolin-2-yl)methyl)-1,2,3,4-tetrahydroisoquinoline-2-carbonyl)cyclohexane-1-carboxylic acid] had a 50% inhibitory concentration (IC50) of 4.7 nM. Besides, the concentration giving a half-maximal response (EC50) in experiment [2] was found to be 15 nM.

`Cn1nnc(COc2ccc(Cl)c3c2[C@@H](CN2CC4(CC4)CC2=O)N(C(=O)[C@@H]2CCC[C@]2(C)C(=O)O)CC3)c1C(F)F` [Example 110, (1S,2R)-2-((S)-5-Chloro-8-((5-(difluoromethyl)-1-methyl-1H-1,2,3-triazol-4-yl)methoxy)-1-((6-oxo-5-azaspiro[2.4]heptan-5-yl)methyl)-1,2,3,4-tetrahydroisoquinoline-2-carbonyl)-1-methylcyclopentane-1-carboxylic acid] yielded an IC50 in experiment [1] of 6.3 nM. In experiment [2], the EC50 is 1.3 nM.

In experiment [1], `COCc1c(COc2ccc(Cl)c3c2[C@@H](CN2C[C@H](C)CC2=O)N(C(=O)[C@@H]2CCCC[C@]2(C)C(=O)O)CC3)nnn1C` [Example 162, (1S,2R)-2-((S)-5-chloro-8-((5-(methoxymethyl)-1-methyl-1H-1,2,3-triazol-4-yl)methoxy)-1-(((R)-4-methyl-2-oxopyrrolidin-1-yl)methyl)-1,2,3,4-tetrahydroisoquinoline-2-carbonyl)-1-methylcyclohexane-1-carboxylic acid] displayed an IC50 of 6.3 nM. Moreover, the EC50 in experiment [2] amounted to 2.4 nM.

In turn, `CCn1cnc(COc2ccc(Br)c3c2[C@@H](CN2Cc4ccccc4C2=O)N(C(=O)[C@@H]2CCCC[C@@H]2C(=O)O)CC3)c1C#N` [Example 43, (1S,2R)-2-((S)-5-bromo-8-((5-cyano-1-ethyl-1H-imidazol-4-yl)methoxy)-1-((1-oxoisoindolin-2-yl)methyl)-1,2,3,4-tetrahydroisoquinoline-2-carbonyl)cyclohexane-1-carboxylic acid] gave an IC50 in experiment [1] of 10 nM. Further, in experiment [2], the EC50 is 18 nM.

The compound `Cn1nnc2cc(COc3cccc4c3[C@@H](CN3C(=O)c5ccccc5C3=O)N(C(=O)[C@@H]3CCCC[C@@H]3C(=O)O)CC4)ccc21` [Example 8, (1S,2R)-2-((S)-1-((1,3-Dioxoisoindolin-2-yl)methyl)-8-((1-methyl-1H-benzo[d][1,2,3]triazol-5-yl)methoxy)-1,2,3,4-tetrahydroisoquinoline-2-carbonyl)cyclohexane-1-carboxylic acid] returned a half-inhibitory concentration (IC50) in experiment [1] of 8.2 nM. The EC50 in experiment [2] came out at 48 nM.

Regarding `Cn1nnc(COc2ccc(Cl)c3c2[C@@H](CN2CC4(CC4)CC2=O)N(C(=O)[C@@H]2CC[C@H](O)C[C@]2(C)C(=O)O)CC3)c1C(F)F` [Example 223, (1S,2R,5S)-2-((S)-5-chloro-8-((5-(difluoromethyl)-1-methyl-1H-1,2,3-triazol-4-yl)methoxy)-1-((6-oxo-5-azaspiro[2.4]heptan-5-yl)methyl)-1,2,3,4-tetrahydroisoquinoline-2-carbonyl)-5-hydroxy-1-methylcyclohexane-1-carboxylic acid], the IC50 in experiment [1] was determined as 5 nM. Also, the 50% effective concentration (EC50) in experiment [2] is 15 nM.

Take `Cn1nnc(COc2ccc(Cl)c3c2[C@@H](CN2CC4(CC4)CC2=O)N(C(=O)[C@@H]2CCCC[C@]2(C)C(=O)O)CC3)c1C1CC1` [Example 159, (1S,2R)-2-((S)-5-chloro-8-((5-cyclopropyl-1-methyl-1H-1,2,3-triazol-4-yl)methoxy)-1-((6-oxo-5-azaspiro[2.4]heptan-5-yl)methyl)-1,2,3,4-tetrahydroisoquinoline-2-carbonyl)-1-methylcyclohexane-1-carboxylic acid]: in experiment [1], the IC50 amounted to 6.7 nM. The 50% effective concentration (EC50) in experiment [2] turned out to be 0.22 nM.

For the compound `Cc1cc(COc2ccc(Br)c3c2[C@@H](CN2Cc4ccccc4C2=O)N(C(=O)[C@@H]2CCCC[C@@H]2C(=O)O)CC3)no1` [Example 26, (1S,2R)-2-((S)-5-Bromo-8-((5-methylisoxazol-3-yl)methoxy)-1-((1-oxoisoindolin-2-yl)methyl)-1,2,3,4-tetrahydroisoquinoline-2-carbonyl)cyclohexane-1-carboxylic acid], 14 nM corresponded to half-maximal inhibition in experiment [1] (IC50). Also, the concentration giving a half-maximal response (EC50) in experiment [2] turned out to be 58 nM.

For `Cn1nnc(COc2ccc(Cl)c3c2[C@@H](CN2CC4(CC4)CC2=O)N(C(=O)[C@@H]2CCCC[C@]2(C)C(=O)O)CC3)c1C(F)F` [Example 123, (1S,2R)-2-((S)-5-chloro-8-((5-(difluoromethyl)-1-methyl-1H-1,2,3-triazol-4-yl)methoxy)-1-((6-oxo-5-azaspiro[2.4]heptan-5-yl)methyl)-1,2,3,4-tetrahydroisoquinoline-2-carbonyl)-1-methylcyclohexane-1-carboxylic acid], in experiment [1], the IC50 amounted to 5.8 nM. The concentration for a half-maximal effect (EC50) in experiment [2] was determined as 0.26 nM.

On to `Cn1cnc2ccc(COc3ccc(Cl)c4c3[C@@H](CN3CCCC3=O)N(C(=O)[C@@H]3CCCC[C@@H]3C(=O)O)CC4)nc21` [Example 99, (1S,2R)-2-((S)-5-chloro-8-((3-methyl-3H-imidazo [4,5-b]pyridin-5-yl)methoxy)-1-((2-oxopyrrolidin-1-yl)methyl)-1,2,3,4-tetrahydroisoquinoline-2-carbonyl) cyclohexane-1-carboxylic acid], for which the IC50 in experiment [1] amounted to 9.7 nM. Further, the EC50 in experiment [2] came to 520 nM.

In experiment [1], `[2H][C@@H]1C[C@@H](C(=O)N2CCc3c(Cl)ccc(OCc4nnn(C)c4C(F)F)c3[C@H]2CN2CC3(CC3)CC2=O)[C@@](C)(C(=O)O)C[C@@H]1[2H]` [Example 210, (1S,2R,4S,5R)-2-((S)-5-chloro-8-((5-(difluoromethyl)-1-methyl-1H-1,2,3-triazol-4-yl)methoxy)-1-((6-oxo-5-azaspiro[2.4]heptan-5-yl)methyl)-1,2,3,4-tetrahydroisoquinoline-2-carbonyl)-1-methylcyclohexane-1-carboxylic-4,5-d2 acid] yielded an IC50 of 5.9 nM. For the same compound, in experiment [2], the half-maximal effective concentration (EC50) was 0.24 nM.

The compound `C[C@]1(C(=O)O)CCCC[C@H]1C(=O)N1CCc2c(Cl)ccc(OCc3nnn4c3CCCC4)c2[C@H]1CN1CC2(CC2)CC1=O` [Example 170, (1S,2R)-2-((S)-5-chloro-1-((6-oxo-5-azaspiro[2.4]heptan-5-yl)methyl)-8-((4,5,6,7-tetrahydro-[1,2,3]triazolo[1,5-a]pyridin-3-yl)methoxy)-1,2,3,4-tetrahydroisoquinoline-2-carbonyl)-1-methylcyclohexane-1-carboxylic acid] returned a half-maximal inhibitory concentration (IC50) in experiment [1] of 6.6 nM. Also, the half-maximal effective concentration (EC50) in experiment [2] stood at 0.11 nM.

In experiment [1], `CC(Oc1ccc(Br)c2c1[C@@H](CN1Cc3ccccc3C1=O)N(C(=O)[C@@H]1CCCC[C@@H]1C(=O)O)CC2)c1cn(C)nn1` (stereo partly drawn) [Example 45, (1S,2R)-2-((1S)-5-bromo-8-(1-(1-methyl-1H-1,2,3-triazol-4-yl)ethoxy)-1-((1-oxoisoindolin-2-yl)methyl)-1,2,3,4-tetrahydroisoquinoline-2-carbonyl)cyclohexane-1-carboxylic acid] had a 50% inhibitory concentration (IC50) of 4.9 nM. Besides, in experiment [2], the EC50 is 110 nM.

In experiment [1], `Cn1nnc(COc2ccc(Cl)c3c2[C@@H](CN2CC(C)(C)CC2=O)N(C(=O)[C@@H]2CCCC[C@]2(C)C(=O)O)CC3)c1C(F)F` [Example 152, (1S,2R)-2-((S)-5-chloro-8-((5-(difluoromethyl)-1-methyl-1H-1,2,3-triazol-4-yl)methoxy)-1-((4,4-dimethyl-2-oxopyrrolidin-1-yl)methyl)-1,2,3,4-tetrahydroisoquinoline-2-carbonyl)-1-methylcyclohexane-1-carboxylic acid] yielded a half-inhibitory concentration (IC50) of 7.2 nM. In experiment [2], the concentration giving a half-maximal response (EC50) was 10 nM.

The compound `O=C(O)[C@H]1CCCC[C@H]1C(=O)N1CCc2c(Br)ccc(O[C@H]3CCN(C(=O)c4cncs4)C3)c2[C@H]1CN1C(=O)c2ccccc2C1=O` [Example 5, (1S,2R)-2-((S)-5-bromo-1-((1,3-dioxoisoindolin-2-yl)methyl)-8-(((S)-1-(thiazole-5-carbonyl)pyrrolidin-3-yl)oxy)-1,2,3,4-tetrahydroisoquinoline-2-carbonyl)cyclohexane-1-carboxylic acid] showed an IC50 in experiment [1] of 6.1 nM. Moreover, the concentration for a half-maximal effect (EC50) in experiment [2] was found to be 2.5 nM.

As for `C[C@H]1CCN(C[C@@H]2c3c(OCc4nnn(C)c4C(F)F)ccc(Cl)c3CCN2C(=O)[C@@H]2CCCC[C@]2(C)C(=O)O)C1=O` [Example 115, (1S,2R)-2-((1S)-5-Chloro-8-((5-(difluoromethyl)-1-methyl-1H-1,2,3-triazol-4-yl)methoxy)-1-(((S)-3-methyl-2-oxopyrrolidin-1-yl)methyl)-1,2,3,4-tetrahydroisoquinoline-2-carbonyl)-1-methylcyclohexane-1-carboxylic acid], inhibition in experiment [1] was half-maximal at 9.7 nM (IC50). In experiment [2], the EC50 was 4.2 nM.

For the compound `Cn1nnc2cc(COc3cccc4c3[C@@H](CN3Cc5ccccc5C3=O)N(C(=O)[C@@H]3CCCC[C@@H]3C(=O)O)CC4)ccc21` [Example 18, (1S,2R)-2-((S)-8-((1-methyl-1H-benzo[d][1,2,3]triazol-5-yl)methoxy)-1-((1-oxoisoindolin-2-yl)methyl)-1,2,3,4-tetrahydroisoquinoline-2-carbonyl)cyclohexane-1-carboxylic acid], the IC50 in experiment [1] came to 10 nM. In experiment [2], the EC50 was 73 nM.

These data come from US12098148B2, “Therapeutic compounds” (C4X Discovery Limited, priority 2018, dated 2024).
